# Where two headings read alike, the source gives them in different places.
# Legend:
# [1] = system: HepG2-A16-CD81 hepatocytes; experiment: cells; set-up: Uninfected hepatocyte viability, CellTiter-Glo luminescence; conditions: sheet CDD Export 1;, cytotoxicity primary screen, read-out: Table S5. Liver stage reconfirmation data / HepG2 Cytotoxicity primary screen (2uM): % Inhibition
# Description: For the screen, 5 μL of HepG2-A16-CD81 hepatocytes containing 3 × 10^3 cells was seeded into 1536-well plates, which had been prespotted with 10 nL of library compound (2 μM final assay concentration (Figure 1)) and incubated overnight. For PbLuc infected plates, approximately 750 purified sporozoites in 5 μL of screening media were added to each well and incubated for 48 h before measuring luciferase activity. Compounds were tested for toxicity in parallel (see Methods) by measuring uninfected hepatocyte viability using CellTiter-Glo. […] This hit rate was slightly lower than expected for an agnostic library, which prompted us to rescreen the entire library at 10 μM. The PbLuc and cytotoxicity assay plates for this second replicate would be stamped in-house with 50 nL of library compound per well, using the same compound plates as the sexual stage screen described below. All the assay parameters were kept similar, except the change in concentration and shortening the time the compounds spent in each well prior to infection. […] All potential false positive effectors from the CellTiter-Glo assay were filtered from subsequent studies (Table S1). Naturally, there were more primary hits from the 10 μM than the 2 μM screen due to the higher testing concentration. For reconfirmation, we sourced all the hits that inhibited PbLuc at >70% and mean HepG2 at <50% in the 2 μM screen or PbLuc at >60% in both 2 and 10 μM screens and mean HepG2 at <50%. The resulting compounds were acquired as DMSO stocks and retested in the dose response (50–2.82 × 10^–4 μM or 25–141.13 × 10^–6 μM) against PbLuc and uninfected hepatocytes (Table S5). […] The majority of these compounds were weak inhibitors, although 18 submicromolar hits were found (Table S5).
# [2] = system: P. falciparum Dd2 (PfLuc) line expressing firefly luciferase, asexual blood stage; experiment: microbe, parasite or virus in culture; format: cell-based, Plasmodium falciparum; conditions: Plasmodium falciparum
# P. falciparum Dd2 = experiment: SYBR green I asexual blood stage proliferation assay (96 h); format: cell-based, Plasmodium falciparum; conditions: Plasmodium falciparum, DD2, Sybr Green I, 11-pt dose response, 96hr; for IC50: read-out: CDD P. falciparum Sybr Green I ABS 11-pt Reconfirmation Dose Response (96hr): IC50; for Emax: read-out: CDD P. falciparum Sybr Green I ABS 11-pt Reconfirmation Dose Response (96hr): Maximum inhibition (%)
# [3] = system: P. falciparum (NF54) stage V gametocytes; experiment: Stage V gametocyte viability assay (MitoTracker Red CMXRos high content imaging); format: cell-based, Plasmodium falciparum; conditions: for inhibition at 2 µM: read-out: Stg V Gam primary screen: Inhibition % (2uM) (n=2)
# [4] = DD2, read-out: CDD P. falciparum Luciferase ABS 11-pt Reconfirmation Dose Response (48hr): IC50 (μM), 11-pt dose response, 48hr
# [5] = DD2, 8-pt dose response, 96hr, read-out: CDD P. falciparum Luciferase ABS 8-pt Reconfirmation Dose Response (96hr): IC50
# [6] = DD2, 8-pt dose response, 96hr, read-out: CDD P. falciparum Luciferase ABS 8-pt Reconfirmation Dose Response (96hr): Maximum inhibition (%)
# [7] = DD2, 11-pt dose response, 48hr, read-out: CDD P. falciparum Luciferase ABS 11-pt Reconfirmation Dose Response (48hr): Maximum inhibition (%)
# [8] = DD2, 11-pt dose response, 96hr, read-out: CDD P. falciparum Luciferase ABS 11-pt Reconfirmation Dose Response (96hr): IC50
# [9] = DD2, 11-pt dose response, 96hr, read-out: CDD P. falciparum Luciferase ABS 11-pt Reconfirmation Dose Response (96hr): Maximum inhibition (%)
# [10] = Plasmodium falciparum, NF54, 72 h, read-out: GAM V IC50, stage V gametocytes, 72 h
# [11] = Plasmodium falciparum, NF54, 72 h, read-out: Stg V Gam dose response IC50 (µM) (n=3), 10-point dose response, n=3, 72 h
# [12] = Plasmodium falciparum, NF54, 72 h
smiles,measurement,setting,value
CC(C)N(CC(N)=O)Cc1csc(COc2ccc(F)cc2)n1 [DDD01303358],inhibition at 2 µM,[1],6.02%
CC(=O)Nc1ncc(S(=O)(=O)Nc2ccc3c(c2)OCCO3)s1 [DDD01037671],inhibition at 2 µM,[1],-2.36%
COc1cc(CNCc2ccnc(N3CCCCC3)c2)cc(OC)c1 [DDD01297270],inhibition at 2 µM,[1],-2.79%
N#Cc1c(Cl)nsc1NCc1cccnc1OCC(F)(F)F [DDD01067853],inhibition at 2 µM,[1],4.29%
Cc1noc(NC(=O)c2ccc(Br)s2)n1 [DDD01302055],inhibition at 2 µM,[1],5.11%
CCc1cccc(N2CCC(NC(=O)c3ccco3)CC2)c1 [DDD01299802],inhibition at 2 µM,[1],4.14%
Clc1ccccc1-c1cc(CNc2ncnc3c2CCNCC3)no1 [DDD01247009],inhibition at 2 µM,[1],-1.07%
Cn1cc(NS(=O)(=O)c2ccc(OC(F)(F)F)cc2)ccc1=O [DDD01303273],inhibition at 2 µM,[1],-4.65%
CCc1ccc(-c2ncc3c(n2)N(C)CCN(CCN(C)C)C3=O)cc1 [DDD01235938],inhibition at 2 µM,[1],4.38%
Cc1ccc(Sc2ccc(CN3CCC4(CCCNC4=O)C3)o2)cc1 (centres unmarked) [DDD01244322],inhibition at 2 µM,[1],-4.2%
Cc1nc(C(=O)NC2CCN(CCOc3ccc(Br)cc3)CC2)cs1 [DDD01079205],inhibition at 2 µM,[1],17.6%
"CN(Cc1ccsc1)c1nc(-c2ccccn2)nc2c1CCNCC2 [DDD01243664, CN(CC1=CSC=C1)C1=NC(=NC2=C1CCNCC2)C1=CC=CC=N1]",IC50,[2]; [4],0.752 µM
same,IC50,[2]; [5],0.52 µM
same,Emax,[2]; [6],95.1%
same,Emax,[2]; [7],89.8%
same,IC50,[2]; [8],0.299 µM
same,Emax,[2]; [9],98.7%
same,IC50,"[2]; DD2, asexual blood stage, assay format not given, read-out: ABS IC50",< 1 µM
same,IC50,P. falciparum Dd2,0.872 µM
same,Emax,P. falciparum Dd2,78.7%
same,IC50,[3]; [10],0.73 µM
same,IC50,[3]; [11],0.732 µM
same,inhibition at 2 µM,[3]; [12],95.1%
same,IC50,"[3]; read-out: GAM V IC50, stage V gametocytes, 72 h",< 1 µM
"CCc1ccc2nc(NCCCN(CCO)CCO)cc(C)c2c1 [DDD01247914, CCC1=CC=C2N=C(NCCCN(CCO)CCO)C=C(C)C2=C1]",IC50,[2]; [4],3.94 µM
same,IC50,[2]; [5],1.07 µM
same,Emax,[2]; [6],91.1%
same,Emax,[2]; [7],92.3%
same,IC50,[2]; [8],1.68 µM
same,Emax,[2]; [9],99.8%
same,IC50,P. falciparum Dd2,3.61 µM
same,Emax,P. falciparum Dd2,94%
same,IC50,[3]; [11],3.72 µM
same,inhibition at 2 µM,[3]; [12],59.7%
"Fc1cccc(C(NCc2ncc[nH]2)c2ccccn2)c1 (centres unmarked) [DDD01064153, FC1=CC=CC(=C1)C(NCC1=NC=CN1)C1=CC=CC=N1]",IC50,[2]; [4],5.61 µM
same,IC50,[2]; [5],0.45 µM
same,Emax,[2]; [7],86.1%
same,IC50,[2]; [8],0.644 µM
same,Emax,[2]; [9],97.4%
same,IC50,P. falciparum Dd2,5.58 µM
same,Emax,P. falciparum Dd2,82.6%
same,IC50,[3]; [10],1.55 µM
same,IC50,[3]; [11],1.55 µM
same,inhibition at 2 µM,[3]; [12],63.2%
Cc1csc2ncnc(N3CCC(Cn4cc(C(C)(C)N)nn4)CC3)c12 [DDD01257281],inhibition at 2 µM,[1],4.6%
CC(=O)c1ccc(N2CCC(CO)(CCOc3ccccc3)CC2)nc1 [DDD01258288],inhibition at 2 µM,[1],17.5%
COc1cccc(CNc2cc(C)nc(-c3ccncc3)n2)c1OC [DDD01073393],IC50,[2]; [4],4.09 µM
same,IC50,[2]; [5],0.56 µM
same,Emax,[2]; [6],94.5%
same,Emax,[2]; [7],80%
same,IC50,[2]; [8],0.0383 µM
same,Emax,[2]; [9],98.2%
same,IC50,P. falciparum Dd2,0.589 µM
same,Emax,P. falciparum Dd2,75.8%
same,inhibition at 2 µM,[1],-4.44%
CC(C)(C)NC(=O)N1CCC(Oc2ccc(C(F)(F)F)cn2)CC1 [DDD01028321],inhibition at 2 µM,[1],-4.73%
COc1c(C)cnc(CN2CCC(N(C)C(C)C(N)=O)CC2)c1C (centres unmarked) [DDD01301801],IC50,"[2]; DD2, 8-pt dose response, 96hr, read-out: P. falciparum Luciferase ABS 8-pt Reconfirmation Dose Response (96hr): IC50",1.63 µM
same,Emax,"[2]; DD2, 8-pt dose response, 96hr, read-out: P. falciparum Luciferase ABS 8-pt Reconfirmation Dose Response (96hr): Maximum inhibition (%)",76.5%
same,inhibition at 2 µM,[1],1.63%
Cn1cncc1CN1CCCC1c1cncc(Oc2ccc(Cl)cc2)n1 (centres unmarked) [DDD01059295],inhibition at 2 µM,[1],0.825%
CCNc1ccnc(CN2CCCC2C(=O)Nc2nccs2)c1 (centres unmarked) [DDD01068941],IC50,[2]; [4],0.73 µM
same,IC50,[2]; [5],0.48 µM
same,Emax,[2]; [7],92.3%
same,IC50,[2]; [8],0.407 µM
same,Emax,[2]; [9],99.6%
same,IC50,P. falciparum Dd2,1.65 µM
same,inhibition at 2 µM,[1],1.3%
Cc1ncc(CN2CCOC(c3ccc(-c4ccccc4F)cn3)C2)s1 (centres unmarked) [DDD01059493],inhibition at 2 µM,[1],-6.23%
N#Cc1c(Cl)nsc1NCC1(c2ccccc2)CCC1 [DDD01079347],inhibition at 2 µM,[1],12%
Fc1ccc(N2CCCN(c3ccc(Cn4ccnc4)cn3)CC2)cc1 [DDD01247581],inhibition at 2 µM,[1],3.83%
COC1CCN(c2ccc(NC(=O)C3CC3)cc2C(F)(F)F)CC1 [DDD01061774],inhibition at 2 µM,[1],12.4%
Cc1ccoc1C(=O)NC1CCN(Cc2csc3c(F)cccc23)CC1 [DDD01304087],inhibition at 2 µM,[1],-2.96%
"NC(=O)c1cccc2nc([C@H]3CCN(Cc4ccccn4)C3)[nH]c12 [DDD01025389, NC(=O)C1=C2NC(=NC2=CC=C1)[C@H]1CCN(CC2=CC=CC=N2)C1]",IC50,[2]; [4],0.058 µM
same,IC50,[2]; [5],0.0339 µM
same,Emax,[2]; [6],98.4%
same,IC50,[2]; [8],0.0101 µM
same,Emax,[2]; [9],101%
same,IC50,P. falciparum Dd2,0.0807 µM
same,Emax,P. falciparum Dd2,86.6%
same,IC50,[3]; [11],0.125 µM
"COc1ccc(-c2c(C)nn3c(=N)c(C#N)n[nH]c23)cc1OC [DDD01035187, COC1=CC=C(C=C1OC)C1=C2N=NC(C#N)=C(N)N2N=C1C]",IC50,[2]; [4],1.18 µM
same,IC50,[2]; [5],0.57 µM
same,Emax,[2]; [6],93%
same,Emax,[2]; [7],95.8%
same,IC50,[2]; [8],0.841 µM
same,Emax,[2]; [9],98.5%
same,IC50,P. falciparum Dd2,5.98 µM
same,Emax,P. falciparum Dd2,90.8%
same,IC50,[3]; [11],8.2 µM
same,inhibition at 2 µM,[3]; [12],61.6%
COC(=O)c1sc(NCc2ccc(N3CCC(O)CC3)c(F)c2)nc1Cl [DDD01073922],inhibition at 2 µM,[1],5.85%
COc1ccc(-c2cc(CNc3ncnc4c3CCNCC4)no2)cc1 [DDD01252258],inhibition at 2 µM,[1],4.02%
COc1cccc(CN2CCc3nc(C(=O)NCC(C)C)sc3CC2)c1 [DDD01030710],inhibition at 2 µM,[1],-10.2%
Cc1nc(N2CC[C@@H](NC(=O)c3cnccn3)[C@H](O)C2)c2ccsc2n1 [DDD01258299],inhibition at 2 µM,[1],-14.6%
O=S(=O)(c1ccc(Cl)s1)N1CCN(Cc2nc(-c3ccco3)cs2)CC1 [DDD01027755],inhibition at 2 µM,[1],12.1%
COc1cccc(CN2CCN(c3ccc4nncn4n3)C(C)C2)c1 (centres unmarked) [DDD01301691],inhibition at 2 µM,[1],-7.2%
"Cc1nn(C)cc1C1=NS(=O)(=O)N(C)C(C(=O)Nc2ccc(Br)cc2)=C1 [DDD01058697, CN1C=C(C(C)=N1)C1=NS(=O)(=O)N(C)C(=C1)C(=O)NC1=CC=C(Br)C=C1]",IC50,[2]; [4],0.55 µM
same,IC50,[2]; [5],0.2 µM
same,Emax,[2]; [6],95.2%
same,Emax,[2]; [7],99.4%
same,IC50,[2]; [8],0.281 µM
same,Emax,[2]; [9],101%
same,IC50,P. falciparum Dd2,0.321 µM
same,Emax,P. falciparum Dd2,99.9%
same,IC50,"[3]; Plasmodium falciparum, NF54, read-out: Stg V Gam dose response IC50 (µM) (n=3), 10-point dose response, n=3, 72 h",2.78 µM
same,inhibition at 2 µM,"[3]; Plasmodium falciparum, NF54, Table S6, 2uM, n=2, 72 h",53.2%
"NCC1CCN(C2CCN(c3ccc(-c4ccco4)cc3)CC2)C1 (centres unmarked) [DDD01252361, NCC1CCN(C1)C1CCN(CC1)C1=CC=C(C=C1)C1=CC=CO1]",IC50,[2]; [4],3 µM
same,IC50,[2]; [5],0.4 µM
same,Emax,[2]; [6],95.9%
same,Emax,[2]; [7],98.8%
same,IC50,[2]; [8],1.8 µM
same,Emax,[2]; [9],100%
same,IC50,P. falciparum Dd2,0.605 µM
same,Emax,P. falciparum Dd2,95.1%
same,IC50,[3]; [11],1.9 µM
same,inhibition at 2 µM,[3]; [12],80.5%
CC(Nc1ncnc2c1CCNC2)c1ccc2c(c1)CCCC2 (centres unmarked) [DDD01252547],inhibition at 2 µM,[1],0.573%
Cc1cc(-c2cnc(NCc3cccnc3)nc2C(C)(C)C)on1 [DDD01061148],inhibition at 2 µM,[1],-8.43%
Nc1nc(CCC(=O)N2CCOC(CC3CCCCC3)C2)cs1 (centres unmarked) [DDD01258215],inhibition at 2 µM,[1],-10.6%
